Data published in PMC7044277 (Nature Communications, 2020).
“And” between values parts separate entries of the source, which are not always exact repeats. Identical values can stand only once.

Assays:
Type in all cases: cell-based
320 non-olfactory GPCRs [1] = biological target: 320 non-olfactory GPCRs (Homo sapiens, UniProt P41145); details: receptor OPRK1; replicate values, Fig_4g
320 non-olfactory GPCRs [2] = biological target: T1, 320 non-olfactory GPCRs (Homo sapiens, UniProt Q01726); details: receptor MC1R; replicate values, Fig_4g
T1 construct: expressed in transfected cells; host or cells: HTLA cells

320 non-olfactory GPCRs [3] = biological target: T2, 320 non-olfactory GPCRs (Homo sapiens, UniProt Q96LB1); details: receptor MRGPRX2; replicate values, Fig_4g
T2 construct: expressed in transfected cells; host or cells: HTLA cells

320 non-olfactory GPCRs [4] = biological target: T3, 320 non-olfactory GPCRs (Homo sapiens, UniProt P30518)
T3 construct: expressed in transfected cells; host or cells: HTLA cells
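Throughout, for Fold of Basal: compound tested at 1 µM final concentration.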
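Throughout, for GPCRome agonism screen response: fold over basal response of each receptor without drug.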

Sequence of 320 non-olfactory GPCRs (Homo sapiens, UniProt P41145) (P41145 whole entry): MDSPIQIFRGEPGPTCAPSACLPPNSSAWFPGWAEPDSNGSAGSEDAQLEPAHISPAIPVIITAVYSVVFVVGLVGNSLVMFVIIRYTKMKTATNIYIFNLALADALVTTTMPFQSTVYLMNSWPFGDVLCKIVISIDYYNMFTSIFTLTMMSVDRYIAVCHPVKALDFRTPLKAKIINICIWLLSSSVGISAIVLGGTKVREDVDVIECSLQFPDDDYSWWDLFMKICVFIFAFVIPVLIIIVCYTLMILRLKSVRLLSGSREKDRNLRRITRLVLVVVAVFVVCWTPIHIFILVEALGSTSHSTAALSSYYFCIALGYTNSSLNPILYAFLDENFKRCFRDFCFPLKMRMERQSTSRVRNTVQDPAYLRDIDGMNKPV
T3 sequence (P30518 whole entry): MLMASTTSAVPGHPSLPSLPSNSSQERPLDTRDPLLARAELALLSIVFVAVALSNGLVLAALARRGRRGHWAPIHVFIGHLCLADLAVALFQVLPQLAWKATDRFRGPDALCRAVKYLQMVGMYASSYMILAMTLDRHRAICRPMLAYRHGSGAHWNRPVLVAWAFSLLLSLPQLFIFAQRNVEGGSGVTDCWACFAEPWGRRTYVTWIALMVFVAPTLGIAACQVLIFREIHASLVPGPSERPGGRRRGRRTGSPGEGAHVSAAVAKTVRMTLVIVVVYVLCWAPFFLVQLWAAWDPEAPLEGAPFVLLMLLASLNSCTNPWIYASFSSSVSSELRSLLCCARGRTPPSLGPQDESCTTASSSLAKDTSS
T2 sequence (Q96LB1 whole entry): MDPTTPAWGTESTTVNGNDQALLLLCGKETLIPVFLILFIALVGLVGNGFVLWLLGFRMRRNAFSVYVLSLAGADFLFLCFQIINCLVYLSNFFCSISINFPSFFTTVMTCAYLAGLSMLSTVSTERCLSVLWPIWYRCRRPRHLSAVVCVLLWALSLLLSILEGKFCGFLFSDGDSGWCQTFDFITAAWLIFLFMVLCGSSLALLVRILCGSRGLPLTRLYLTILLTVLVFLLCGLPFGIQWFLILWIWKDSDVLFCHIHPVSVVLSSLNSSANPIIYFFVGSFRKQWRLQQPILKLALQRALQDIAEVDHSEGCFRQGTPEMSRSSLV
T1 sequence (Q01726 whole entry): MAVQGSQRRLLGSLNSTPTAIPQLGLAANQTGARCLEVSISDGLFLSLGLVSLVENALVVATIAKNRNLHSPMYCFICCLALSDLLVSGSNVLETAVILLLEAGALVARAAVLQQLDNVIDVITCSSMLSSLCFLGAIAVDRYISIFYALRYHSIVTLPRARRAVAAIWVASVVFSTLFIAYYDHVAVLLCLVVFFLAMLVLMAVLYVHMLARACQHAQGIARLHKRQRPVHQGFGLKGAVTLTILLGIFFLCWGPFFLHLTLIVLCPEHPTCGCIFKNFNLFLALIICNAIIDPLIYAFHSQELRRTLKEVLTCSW

## CCOc1cccc2cc(C(C)NCC3(O)CCCCC3)oc12 (stereo not shown) [O4LE6]
320 non-olfactory GPCRs [1]
  GPCRome agonism screen response: 0.2798 and 2.137 and 1.223 and 1.286
320 non-olfactory GPCRs [2]
  GPCRome agonism screen response: 1.144 and 0.3717 and 0.6675 and 1.8673
320 non-olfactory GPCRs [3]
  GPCRome agonism screen response: 1.268 and 1.306 and 1.279 and 0.9356
320 non-olfactory GPCRs [4]
  Fold of Basal: 1.01 and 0.8337 and 0.9883 and 1.294
